In publication PMC4971072, “Chemically Homogenous Compounds with Antagonistic Properties at All α1-Adrenoceptor Subtypes but not β1-Adrenoceptor Attenuate Adrenaline-Induced Arrhythmia in Rats” (Frontiers in Pharmacology, 2016):
pKi: −log10 of the molar value. Counter-ions that a name gives are not always drawn. Marks after values point to notes of the source that are not given here.

Key:
α1-adrenoceptor = α1-adrenoceptor radioligand binding assay ([3H]-prazosin, rat cerebral cortex); conditions: read-out: Adrenergic receptors Ki α1
normal ECG in rats = test: The effect on normal electrocardiogram in rats; assay type: in vivo, rat; conditions: anesthetized rats
Method: The experiment was carried out to exclude the influence of tested compounds on normal ECG. […] The influence on QRS complex, PQ interval, heart rate (RR), and QTc interval was determined.

[1] = system: adrenaline-induced arrhythmia in rats; test: Prophylactic antiarrhythmic activity in adrenaline-induced arrhythmia; assay type: in vivo, rat
Method: The studied compounds were administered i.p. 45 min before the injection of adrenaline, calcium chloride, or barium chloride. The electrocardiogram (ECG) was recorded during the first 2 min as well as in the 5th, 10th, and 15th min after the arrhythmogen injection. […]

[2] = system: blood pressure in normotensive rats; test: Influence on blood pressure in normotensive rats; assay type: in vivo, rat; set-up: Systolic pressure / Diastolic pressure: unit not given beside the values; conditions: for Diastolic pressure / Systolic pressure: anesthetized normotensive rats
Method: The tested compounds were administered i.p. after 15 min of stabilization period. The compounds were administered at the dose 10 mg/kg.

α1D-adrenoreceptors = target: T1, α1D-adrenoreceptors (Rattus norvegicus, UniProt P23944); test: Functional bioassay, isolated rat aorta, noradrenaline contraction; assay type: biochemical; set-up: had aorta removed, denuded of endothelium and incubated in the Krebs-Henseleit solution; from tissue; host or cells: isolated rat aorta rings; conditions: noradrenaline as agonist
T1 sequence (P23944 1-561): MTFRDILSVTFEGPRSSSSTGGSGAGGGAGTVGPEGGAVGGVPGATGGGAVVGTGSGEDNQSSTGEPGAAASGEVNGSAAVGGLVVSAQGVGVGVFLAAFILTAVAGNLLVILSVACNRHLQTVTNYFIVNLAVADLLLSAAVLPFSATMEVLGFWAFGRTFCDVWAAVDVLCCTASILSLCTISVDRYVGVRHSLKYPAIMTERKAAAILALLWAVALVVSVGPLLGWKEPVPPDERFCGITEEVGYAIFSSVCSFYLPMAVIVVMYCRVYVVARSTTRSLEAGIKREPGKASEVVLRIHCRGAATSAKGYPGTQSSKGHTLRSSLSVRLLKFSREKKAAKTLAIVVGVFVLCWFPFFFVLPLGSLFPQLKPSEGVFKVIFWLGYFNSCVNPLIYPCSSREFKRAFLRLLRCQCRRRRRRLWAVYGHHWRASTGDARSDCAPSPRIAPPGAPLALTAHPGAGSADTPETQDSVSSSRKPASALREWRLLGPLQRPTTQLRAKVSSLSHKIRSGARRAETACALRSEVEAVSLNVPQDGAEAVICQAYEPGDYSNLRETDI

[3] = i.p. at ED84, 0 min (initial values)
[4] = dose 0.1 mg/kg i.p. 45 min before adrenaline 20 μg/kg i.v.
[5] = dose 0.2 mg/kg i.p. 45 min before adrenaline 20 μg/kg i.v.
[6] = dose 0.3 mg/kg i.p. 45 min before adrenaline 20 μg/kg i.v.
[7] = lowest hypotensive dose i.p., 5 min
[8] = lowest hypotensive dose i.p., 10 min
[9] = lowest hypotensive dose i.p., 20 min
[10] = lowest hypotensive dose i.p., 30 min
[11] = lowest hypotensive dose i.p., 40 min
[12] = lowest hypotensive dose i.p., 50 min
[13] = lowest hypotensive dose i.p., 60 min
[14] = lowest hypotensive dose i.p., Control (before administration)
[15] = normotensive rats, lowest hypotensive dose i.p., period of significant effect

COc1ccccc1N1CCN(CCCOc2cc(C)ccc2Cl)CC1 [HBK-16, 1N-[3-(2-chloro-5-methylphenoxy)propyl]-4N-(2-methoxyphenyl)piperazine hydrochloride]
pKi (α1-adrenoceptor): 8.30
influence on ECG parameters (PQ interval, QRS complex, QTc interval) (normal ECG in rats; i.p. at ED84): did not influence PQ interval, QRS complex or QTc interval
reduction of heart rate (normal ECG in rats; i.p. at ED84, over the period of significant effect vs. initial values): 11−13%
Beats/min (ECG) (normal ECG in rats; [3]): 329.6 ± 9.8 Beats/min
PQ (ECG) (normal ECG in rats; [3]): 64.4 ± 1.1 ms
QRS (ECG) (normal ECG in rats; [3]): 21.7 ± 2.2 ms
QT (ECG) (normal ECG in rats; [3]): 51.4 ± 3.5 ms
QTc (ECG, Bazett) (normal ECG in rats; [3]): 120.5 ± 8.7 ms
Beats/min (ECG) (normal ECG in rats; i.p. at ED84, 5 min): 331.4 ± 12.5 Beats/min
PQ (ECG) (normal ECG in rats; i.p. at ED84, 5 min): 63.7 ± 1.1 ms
QRS (ECG) (normal ECG in rats; i.p. at ED84, 5 min): 21.7 ± 2.2 ms
QT (ECG) (normal ECG in rats; i.p. at ED84, 5 min): 51.2 ± 3.5 ms
QTc (ECG, Bazett) (normal ECG in rats; i.p. at ED84, 5 min): 120.7 ± 9.7 ms
Beats/min (ECG) (normal ECG in rats; i.p. at ED84, 10 min): 330.1 ± 12.4 Beats/min
PQ (ECG) (normal ECG in rats; i.p. at ED84, 10 min): 63.6 ± 0.9 ms
QRS (ECG) (normal ECG in rats; i.p. at ED84, 10 min): 21.7 ± 2.2 ms
QT (ECG) (normal ECG in rats; i.p. at ED84, 10 min): 51.2 ± 3.3 ms
QTc (ECG, Bazett) (normal ECG in rats; i.p. at ED84, 10 min): 120.2 ± 8.8 ms
Beats/min (ECG) (normal ECG in rats; i.p. at ED84, 15 min): 319.4 ± 10.3 Beats/min
PQ (ECG) (normal ECG in rats; i.p. at ED84, 15 min): 63.9 ± 1.1 ms
QRS (ECG) (normal ECG in rats; i.p. at ED84, 15 min): 21.7 ± 2.2 ms
QT (ECG) (normal ECG in rats; i.p. at ED84, 15 min): 50.1 ± 3.6 ms
QTc (ECG, Bazett) (normal ECG in rats; i.p. at ED84, 15 min): 115.8 ± 9.6 ms
Beats/min (ECG) (normal ECG in rats; i.p. at ED84, 20 min): 310.6 ± 9.8 Beats/min
PQ (ECG) (normal ECG in rats; i.p. at ED84, 20 min): 65.1 ± 1.2 ms
QRS (ECG) (normal ECG in rats; i.p. at ED84, 20 min): 21.7 ± 2.2 ms
QT (ECG) (normal ECG in rats; i.p. at ED84, 20 min): 51.4 ± 3.1 ms
QTc (ECG, Bazett) (normal ECG in rats; i.p. at ED84, 20 min): 117.3 ± 8.7 ms
Beats/min (ECG) (normal ECG in rats; i.p. at ED84, 30 min): 302.8 ± 11.0 Beats/min
PQ (ECG) (normal ECG in rats; i.p. at ED84, 30 min): 64.4 ± 1.1 ms
QRS (ECG) (normal ECG in rats; i.p. at ED84, 30 min): 21.7 ± 2.2 ms
QT (ECG) (normal ECG in rats; i.p. at ED84, 30 min): 52.7 ± 3.7 ms
QTc (ECG, Bazett) (normal ECG in rats; i.p. at ED84, 30 min): 119.0 ± 10.3 ms
Beats/min (ECG) (normal ECG in rats; i.p. at ED84, 40 min): 294.1 ± 12.2^a Beats/min
PQ (ECG) (normal ECG in rats; i.p. at ED84, 40 min): 65.9 ± 0.8 ms
QRS (ECG) (normal ECG in rats; i.p. at ED84, 40 min): 21.7 ± 2.2 ms
QT (ECG) (normal ECG in rats; i.p. at ED84, 40 min): 53.5 ± 2.8 ms
QTc (ECG, Bazett) (normal ECG in rats; i.p. at ED84, 40 min): 118.9 ± 8.4 ms
Beats/min (ECG) (normal ECG in rats; i.p. at ED84, 50 min): 291.4 ± 13.0^b Beats/min
PQ (ECG) (normal ECG in rats; i.p. at ED84, 50 min): 67.3 ± 1.6 ms
QRS (ECG) (normal ECG in rats; i.p. at ED84, 50 min): 22.0 ± 2.1 ms
QT (ECG) (normal ECG in rats; i.p. at ED84, 50 min): 54.7 ± 2.8 ms
QTc (ECG, Bazett) (normal ECG in rats; i.p. at ED84, 50 min): 121.1 ± 8.7 ms
Beats/min (ECG) (normal ECG in rats; i.p. at ED84, 60 min): 288.0 ± 13.8^b Beats/min
PQ (ECG) (normal ECG in rats; i.p. at ED84, 60 min): 68.2 ± 0.9 ms
QRS (ECG) (normal ECG in rats; i.p. at ED84, 60 min): 22.3 ± 2.0 ms
QT (ECG) (normal ECG in rats; i.p. at ED84, 60 min): 55.5 ± 2.4 ms
QTc (ECG, Bazett) (normal ECG in rats; i.p. at ED84, 60 min): 122.0 ± 7.7 ms
ED50 ([1]; Rattus norvegicus, read-out: ED50 (confidence limits)): 0.2 mg/kg
Bigeminy (%) [1, 4]: 33.3%
Blocks (%) [1, 4]: 50.0%
Bradycardia (%) [1, 4]: 66.7%
Extrasystoles (%) [1, 4]: 83.3%
Bigeminy (%) [1, 5]: 16.7%
Blocks (%) [1, 5]: 33.3%
Bradycardia (%) [1, 5]: 50.0%
Extrasystoles (%) [1, 5]: 33.3%
Blocks (%) [1, 6]: 16.7%
Bradycardia (%) [1, 6]: 33.3%
Extrasystoles (%) [1, 6]: 16.7%
Diastolic pressure [2, 7]: 95.0 ± 5.1
Systolic pressure [2, 7]: 123.2 ± 3.3
Diastolic pressure [2, 8]: 93.7 ± 5.1
Systolic pressure [2, 8]: 121.2 ± 3.2
Diastolic pressure [2, 9]: 91.3 ± 5.0^b
Systolic pressure [2, 9]: 114.8 ± 2.0^b
Diastolic pressure [2, 10]: 89.8 ± 5.2^a
Systolic pressure [2, 10]: 113.0 ± 2.4^c
Diastolic pressure [2, 11]: 87.7 ± 4.7^b
Systolic pressure [2, 11]: 110.3 ± 2.1^c
Diastolic pressure [2, 12]: 88.0 ± 4.3^c
Systolic pressure [2, 12]: 110.8 ± 2.0^b
Diastolic pressure [2, 13]: 87.7 ± 4.6^b
Systolic pressure [2, 13]: 110.7 ± 1.9^c
Diastolic pressure [2, 14]: 97.0 ± 4.3
Systolic pressure [2, 14]: 124.7 ± 3.1
lowest hypotensive dose ([2]; normotensive rats, lowest dose significantly lowering systolic and diastolic blood pressure): 0.1 mg/kg
reduction of diastolic blood pressure [2, 15]: 6−10%
reduction of systolic blood pressure [2, 15]: 8−11%
Schild slope ± S.E.M., α1D (α1D-adrenoreceptors): 1.11 ± 0.12
Kb (α1D-adrenoreceptors; read-out: pA2 ± S.E.M., α1D (converted)): 0.724 nM
